Where a name gives a salt, the structure may show the parent alone.
These compounds were tested on K562 cells, human proerythroblast cells (assay: Hemoglobin production in K562 cells (fluorescence of the porphyrin ring)). Settings: 144 h, test compound 6 μM, 3+3 days, non-stimulated state = 100%, read-out: production amount of hemoglobin, % of control (6 μM).
Type: cell-based
Experimental: K562 cells (obtained from ATCC), which are human proerythroblast cells, were seeded at a density of 1×10^5 cells/1 mL on a 24-well plate by using complete medium (RPMI-1640 medium comprising 10% bovine fetal serum). After adding the test compound having 1000× concentration (1 μL), the cells were incubated for three days in a CO2 incubator (37° C., 5% CO2). After exchanging the medium, the cells were further incubated for three days. Then, the cells were collected and counted. After adjusting them to have 3×10^5 cells, the amount of hemoglobin produced in the cells was determined by measuring fluorescence of the porphyrin ring. Specifically, the cells which had been collected by centrifugation were suspended in 2 M oxalic acid solution (500 μL) and boiled for 30 minutes under heating. After cooling the cells, the fluorescence intensity was measured by Fluorescence micro plate reader (Spectra MAX GeminiEM, manufactured by Molecular Devices Corporation) ([…]). When hemoglobin amount in non-stimulated state, i.e., without addition of any compound, was 100%, the production amount of hemoglobin induced by each compound was calculated (% of control).

With `CC(=O)N1c2ccccc2[C@H](Oc2ccc(O)cc2)C[C@@H]1C` (relative stereo) [Compound 57, cis-1-acetyl-4-(4-hydroxyphenoxy)-2-methyl-1,2,3,4-tetrahydroquinoline] as the compound, how does the activity at 6 µM read?
The activity at 6 µM was 221%.

Which activity at 6 µM does the source give for `CCOC(=O)c1ccc2c(c1)C(Oc1ccc(F)cc1)CC(C)N2C(C)=O` (stereo not shown) [Compound 53, ethyl 1-acetyl-4-(4-fluorophenoxy)-2-methyl-1,2,3,4-tetrahydroquinoline-6-carboxylate] here?
Its activity at 6 µM is 307%.

`CCOC(=O)c1ccc2c(c1)C(Nc1ccc(CC#N)cc1)CC(C)N2C(C)=O` (stereo not shown) [Compound 103, ethyl 1-acetyl-4-[(4-cyanomethylphenyl)amino]-2-methyl-1,2,3,4-tetrahydroquinoline-6-carboxylate] was tested. Which activity at 6 µM did it give?
The activity at 6 µM was 485%.

`CC(=O)N1c2ccc(N3CCOCC3)cc2C(Nc2ccc(CC(=O)O)cc2)CC1C` (stereo not shown) [Compound 89, 1-acetyl-4-[(4-carboxymethylphenyl)amino]-6-morpholino-2-methyl-1,2,3,4-tetrahydroquinoline] was tested. Which activity at 6 µM did it give?
The activity at 6 µM was 154%.

With `CC(=O)N1c2ccc(NCCO)cc2C(Nc2ccc(Cl)cc2)CC1C` (stereo not shown) [Compound 82, 1-acetyl-4-[(4-chlorophenyl)amino]-6-[(2-hydroxy)ethylamino]-2-methyl-1,2,3,4-tetrahydroquinoline] as the compound, how does the activity at 6 µM read?
Its activity at 6 µM is 325%.

With `CCOC(=O)Cc1ccc(NC2CC(C)N(C(C)=O)c3ccc(NS(C)(=O)=O)cc32)cc1` (stereo not shown) [Compound 99, 1-acetyl-6-methanesulfonylamino-2-methyl-4-[(4-ethoxycarbonylmethylphenyl)amino]-1,2,3,4-tetrahydroquinoline] as the compound, how does the activity at 6 µM read?
Its activity at 6 µM is 69%.

Which activity at 6 µM does the source give for `CC(=O)N1c2ccccc2[C@H](Nc2ccccc2C(=O)O)C[C@@H]1C` (relative stereo) [Compound 109, cis-1-acetyl-4-[(2-carboxyphenyl)amino]-2-methyl-1,2,3,4-tetrahydroquinoline] here?
The activity at 6 µM was 229%.

With `CC(=O)Nc1ccc2c(c1)C(Nc1ccc(Cl)cc1)CC(C)N2C(C)=O` (stereo not shown) [Compound 96, 1-acetyl-6-acetylamino-4-[(4-chlorophenyl)amino]-2-methyl-1,2,3,4-tetrahydroquinoline] as the compound, how does the activity at 6 µM read?
Its activity at 6 µM is 530%.

Which activity at 6 µM does the source give for `CC(=O)N1c2ccc(-c3nc(=O)o[nH]3)cc2C(Nc2ccc(Cl)cc2)CC1C` (stereo not shown) [Compound 120, 1-acetyl-4-[(4-chlorophenyl)amino]-2-methyl-6-[1,2,4-oxadiazol-5(2H)-on-3-yl]-1,2,3,4-tetrahydroquinoline] here?
Its activity at 6 µM is 188%.

How did the activity at 6 µM turn out when `CC(=O)N1c2ccc(N3CCN(C(=O)NC(C)C)CC3)cc2C(Nc2ccc(Cl)cc2)CC1C` (stereo not shown) [Compound 88, 1-acetyl-4-[(4-chlorophenyl)amino]-6-[4-(isopropylaminocarbonyl)piperazino]-2-methyl-1,2,3,4-tetrahydroquinoline] was run?
The activity at 6 µM was 112%.

Which activity at 6 µM does the source give for `CC(=O)N1c2ccc(N3CC(C)OC(C)C3)cc2C(Nc2ccc(NS(C)(=O)=O)cc2)CC1C` (stereo not drawn) [Compound 110, 1-acetyl-6-[cis-2,6-dimethylmorpholin-4-yl]-4-[(4-methanesulfonylaminophenyl)amino]-2-methyl-1,2,3,4-tetrahydroquinoline.2 hydrochloride] here?
Its activity at 6 µM is 211%.

Which activity at 6 µM does the source give for `CC(=O)N1c2ccc(C(N)=O)cc2[C@H](Nc2ccc(NS(C)(=O)=O)cc2)C[C@@H]1C` (relative stereo) [Compound 102, cis-1-acetyl-4-[(4-methanesulfonylaminophenyl)amino]-2-methyl-1,2,3,4-tetrahydroquinoline-6-carboxamide] here?
Its activity at 6 µM is 91%.

For `CC(=O)N1c2ccccc2[C@H](Nc2ccc(Cc3ccccc3)cc2)C[C@@H]1C` (relative stereo) [Compound 112, cis-1-acetyl-4-[(4-benzylphenyl)amino]-2-methyl-1,2,3,4-tetrahydroquinoline], which activity at 6 µM is on record?
The activity at 6 µM was 139%.

The compounds below were run on HepG2 cells originating from human liver cancer (assay: EPO production in HepG2 cells (EPO ELISA of culture supernatant, 4% oxygen, 48 hrs)). Settings: test compound 3 μM, oxygen 4%, non-stimulated state = 100%, read-out: EPO production amount, % of control (3 μM).
Type: cell-based
Experimental: HepG2 cells originating from human liver cancer were seeded at a density of 1×10^4 cells per well on a 24-well plate by using minimum essential medium (MEM, manufactured by Sigma) comprising 10% bovine fetal serum. Next day, the medium was exchanged with Dulbecco's modified eagle medium (DMEM, manufactured by Sigma) comprising 10% bovine fetal serum lacking phenol red. Then, the test compound dissolved in DMSO was added thereto to obtain the final concentration of 3 μM or 10 μM while having 400 μl of the medium per well. The cells were incubated for 48 hrs in a CO2 incubator which had been adjusted to have oxygen concentration of 4%, followed by collecting the culture supernatant. The EPO concentration in the culture supernatant was immediately measured by using EPO ELISA kit (manufactured by Roche Diagnostics K.K.). Specific procedures were carried out according to the manufacturer's protocol included in the kit.
When EPO production amount in non-stimulated state, i.e., without addition of any compound, was 100%, the EPO production amount induced by each compound was calculated (% of control).

`CC(=O)N1c2ccccc2[C@H](Oc2ccc(O)cc2)C[C@@H]1C` (relative stereo) [Compound 57, cis-1-acetyl-4-(4-hydroxyphenoxy)-2-methyl-1,2,3,4-tetrahydroquinoline] was tested. Which activity at 3 µM did it give?
The activity at 3 µM was 251%.

How did the activity at 3 µM turn out when `CCOC(=O)c1ccc2c(c1)C(Oc1ccc(F)cc1)CC(C)N2C(C)=O` (stereo not shown) [Compound 53, ethyl 1-acetyl-4-(4-fluorophenoxy)-2-methyl-1,2,3,4-tetrahydroquinoline-6-carboxylate] was run?
The activity at 3 µM was 134%.

`CONC(=O)c1ccc2c(c1)C(Nc1ccc(Cl)cc1)CC(C)N2C(C)=O` (stereo not shown) [Compound 118, 1-acetyl-4-[(4-chlorophenyl)amino]-N-methoxy-2-methyl-1,2,3,4-tetrahydroquinoline-6-carboxamide.hydrochloride] was tested. Which activity at 3 µM did it give?
The activity at 3 µM was 138%.

Which activity at 3 µM does the source give for `CCOC(=O)c1ccc2c(c1)C(Nc1ccc(CC#N)cc1)CC(C)N2C(C)=O` (stereo not shown) [Compound 103, ethyl 1-acetyl-4-[(4-cyanomethylphenyl)amino]-2-methyl-1,2,3,4-tetrahydroquinoline-6-carboxylate] here?
Its activity at 3 µM is 108%.

With `CC(=O)N1c2ccccc2C(Nc2ccc(O)cc2)CC1C` (stereo not drawn) [Compound 24, cis-1-acetyl-4-[(4-hydroxyphenyl)amino]-2-methyl-1,2,3,4-tetrahydroquinoline.hydrochloride] as the compound, how does the activity at 3 µM read?
The activity at 3 µM was 117%.

How did the activity at 3 µM turn out when `CC(=O)N1c2ccc(C#N)cc2C(Nc2ccc(Cl)cc2)CC1C` (stereo not shown) [Compound 117, 1-acetyl-4-[(4-chlorophenyl)amino]-6-cyano-2-methyl-1,2,3,4-tetrahydroquinoline] was run?
Its activity at 3 µM is 204%.

For `CCOC(=O)Cc1ccc(NC2CC(C)N(C(C)=O)c3ccccc32)cc1` (stereo not shown) [Compound 70, 1-acetyl-4-[(4-ethoxycarbonylmethylphenyl)amino]-2-methyl-1,2,3,4-tetrahydroquinoline], which activity at 3 µM is on record?
The activity at 3 µM was 165%.

For `CC(=O)N1c2ccccc2C(Nc2ccc(C)cc2)CC1C` (stereo not shown) [Compound 51, 1-acety1-4-[(4-methylphenyl)amino]-2-methyl-1,2,3,4-tetrahydroquinoline], which activity at 3 µM is on record?
The activity at 3 µM was 239%.

How did the activity at 3 µM turn out when `CC(=O)N1c2ccccc2C(Nc2ccc(-c3ccccc3)cc2)CC1C` (stereo not shown) [Compound 25, 1-acetyl-2-methyl-4-[(1,1′-biphenyl-4-yl)amino]-1,2,3,4-tetrahydroquinoline] was run?
The activity at 3 µM was 242%.

How did the activity at 3 µM turn out when `CC(=O)N1c2ccccc2C(Nc2ccccc2C)CC1C` (stereo not shown) [Compound 49, 1-acetyl-4-[(2-methylphenyl)amino]-2-methyl-1,2,3,4-tetrahydroquinoline] was run?
The activity at 3 µM was 271%.

For `CC(=O)N1c2ccc(N3CCN(S(C)(=O)=O)CC3)cc2C(Nc2ccc(Cl)cc2)CC1C` (stereo not shown) [Compound 80, 1-acetyl-6-[(4-methanesulfonyl)piperazino]-4-[(4-chlorophenyl)amino]-2-methyl-1,2,3,4-tetrahydroquinoline], which activity at 3 µM is on record?
Its activity at 3 µM is 219%.

Which activity at 3 µM does the source give for `CC(=O)N1c2ccccc2C(Oc2ccc(N3CCOCC3)cc2)CC1C` (stereo not shown) [Compound 55, 1-acetyl-4-(4-morpholinophenoxy)-2-methyl-1,2,3,4-tetrahydroquinoline] here?
Its activity at 3 µM is 134%.

For `CC(=O)N1c2ccc(C(N)=O)cc2C(Nc2ccc(Cl)cc2)CC1C` (stereo not shown) [Compound 43, 1-acetyl-4-[(4-chlorophenyl)amino]-2-methyl-1,2,3,4-tetrahydroquinoline-6-carboxamide], which activity at 3 µM is on record?
Its activity at 3 µM is 452%.

`CC(=O)N1c2ccc(N3CCN(C(C)C)CC3)cc2C(Nc2ccc(Cl)cc2)CC1C` (stereo not shown) [Compound 81, 1-acetyl-4-[(4-chlorophenyl)amino]-6-[(4-isopropyl)piperazino]-2-methyl-1,2,3,4-tetrahydroquinoline] was tested. Which activity at 3 µM did it give?
Its activity at 3 µM is 234%.

How did the activity at 3 µM turn out when `CC(=O)N1c2ccccc2C(Nc2cccc(C)c2)CC1C` (stereo not shown) [Compound 50, 1-acety1-4-[(3-methylphenyl)amino]-2-methyl-1,2,3,4-tetrahydroquinoline] was run?
The activity at 3 µM was 289%.

`CC(=O)N1c2ccc(F)cc2C(Nc2ccc(CC(=O)O)cc2)CC1C` (stereo not shown) [Compound 123, 1-acetyl-4-[(4-carboxymethylphenyl)amino]-6-fluoro-2-methyl-1,2,3,4-tetrahydroquinoline] was tested. Which activity at 3 µM did it give?
The activity at 3 µM was 142%.

For `CC(=O)N1c2ccc(C)cc2C(Nc2ccc(C)cc2)CC1C` (stereo not shown) [Compound 2, 1-acetyl-2,6-dimethyl-4-[(4-methylphenyl)amino]-1,2,3,4-tetrahydroquinoline], which activity at 3 µM is on record?
The activity at 3 µM was 167%.

Which activity at 3 µM does the source give for `CC(=O)N1c2ccccc2C(Nc2ccc(C(F)(F)F)cc2)CC1C` (stereo not shown) [Compound 52, 1-acetyl-2-methyl-4-[(4-trifluoromethylphenyl)amino]-1,2,3,4-tetrahydroquinoline] here?
The activity at 3 µM was 314%.

From patent US20130172345A1, “1-ACYL-4-(PHENOXY, BENZYLOXY, OR PHENYLAMINO)-1,2,3,4-TETRAHYDROQUINOLINE DERIVATIVES” (KOWA COMPANY, LTD., priority 2007, published 2013)
